From publication PMC7252619 (PLoS ONE, 2020)
Where two headings read alike, the source gives them in different places.

Columns and labels:
[1] = molecular target: T1, NEK2 (Homo sapiens, UniProt P51955); assay: Kinase activity test (ReactionBiology), % enzyme activity relative to DMSO; format: biochemical;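 further: FDA-approved drugs chosen by structure-based repositioning, each screened at 10 or 1 µM for kinase activity, expressed as percent of DMSO controls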
T1 construct: purchased ReactionBiology
T1 sequence (P51955 1-445): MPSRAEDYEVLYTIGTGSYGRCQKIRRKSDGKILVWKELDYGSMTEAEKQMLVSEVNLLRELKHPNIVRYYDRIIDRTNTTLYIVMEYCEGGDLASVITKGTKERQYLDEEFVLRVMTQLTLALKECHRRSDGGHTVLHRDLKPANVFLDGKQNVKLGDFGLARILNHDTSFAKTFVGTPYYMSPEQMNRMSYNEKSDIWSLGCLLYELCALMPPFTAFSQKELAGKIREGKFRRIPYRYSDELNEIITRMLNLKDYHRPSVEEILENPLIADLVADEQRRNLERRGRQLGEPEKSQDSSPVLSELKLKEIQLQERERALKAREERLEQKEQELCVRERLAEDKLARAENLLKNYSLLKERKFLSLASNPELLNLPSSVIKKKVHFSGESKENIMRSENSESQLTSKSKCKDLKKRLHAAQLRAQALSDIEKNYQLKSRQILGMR

[2] = molecular target: T2, DAPK1 (Homo sapiens, UniProt P53355); assay: as above; format: biochemical; details: DAPK1
T2 construct: purchased ReactionBiology

[3] = molecular target: T3, CK1d (Homo sapiens, UniProt P48730); assay: as above; format: biochemical; details: CK1d
T3 construct: purchased ReactionBiology

[4] = molecular target: T4, MST-4 (Homo sapiens, UniProt Q9P289); assay: as above; format: biochemical; details: MST4;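 further: marketed FDA-approved drugs screened at 10 µM and 1 µM against a ten-kinase panel, remaining activity given as percent of DMSO controls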
T4 construct: purchased ReactionBiology

[5] = molecular target: T5, MAP2K2 (Homo sapiens, UniProt P36507); assay: as above; format: biochemical; details: MEK2
T5 construct: purchased ReactionBiology

[6] = tested on: human CD19+ B cells; assay: B-cell assay: IgG production of ODN2006-stimulated primary B cells (AlphaLISA); format: cell-based; details: Homo sapiens, B-cell, 168 h; IgG production, ODN2006 0.1 μM, 7 days; mean of 4 independent experiments; read-out: B-cell IC50
[7] = tested on: human PBMCs (responder cells) with RPMI1788 stimulator cells; assay: Mixed Lymphocyte Reaction (MLR, T cell assay), 3H-thymidine incorporation; format: cell-based; details: for IC50: Homo sapiens, RPMI-1788, mean of 4 independent measures, read-out: T-cell efficacy, MLR IC 50 (µM) Mean
Method: In order to test the efficacy and selectivity of the hit compounds on B-cells, 4 assays were performed: B-cell assay, Mixed Lymphocyte Reaction (MLR), WST-1 assay on RPMI1788 cells (B-cell line) and cytotoxicity WST-1 assay on Jurkat cells (T-cell line). Compounds were prepared as 10 mM stock solutions in dimethylsulfoxide (DMSO)and were tested at 50-10-1-0.1-0.01 and 0.001 μM in the 4 assays.
Blood samples of healthy volunteers were collected at the Red Cross of Mechelen, Belgium. Each donor consents to the use of their blood for research purposes. […] The human B cell line RPMI1788 (American Type Culture Collection, USA) and the human T cell line Jurkat (European Collection of Cell Cultures, ECACC, England) were maintained in RPMI1640 culture medium (BioWhittaker®, Lonza, Verviers, Belgium) containing 10% foetal calf serum (FCS, HyClone® Thermo Scientific, United Kingdom) and 5 μg/mL gentamicin sulphate (BioWhittaker®, Lonza, Verviers, Belgium) at 37°C and 5% CO2.
MLR assay (T cell assay): Freshly isolated human PBMCs (responder cells) were resuspended in RPMI1640 medium containing 10% FCS and 5nμg/mL gentamicin sulphate. RPMI1788 cells (stimulator cells) were inactivated by treatment with mitomycin C (Kyowa®, Takeda Belgium, Brussels, Belgium) for 20 min at 37°C, washed and finally suspended in culture medium. An amount of 100 μL of each cell suspension was mixed with 20 μL of diluted compound. The mixed cells were cultured at 37°C for 6 days in 5% CO2. DNA synthesis was assayed by the addition of 10 μCi (methyl-3H) thymidine (Perkin Elmer, Zaventem, Belgium) per well during the last 18 h in culture. Thereafter, the cells were harvested on glass filter paper and the counts per minute determined in a liquid scintillation counter (TopCount, Perkin Elmer, Zaventem, Belgium).

[8] = WST-1 cytotoxicity assay on RPMI1788 cells (B-cell line); format: cell-based, human; details: human, RPMI1788 cells (B-cell line), mean of 4 independent measures, read-out: Cytotoxicity, WST-1 RPMI 1788 IC 50 (µM) Mean
Method: (§1) Compounds were prepared as 10 mM stock solutions in dimethylsulfoxide (DMSO)and were tested at 50-10-1-0.1-0.01 and 0.001 μM in the 4 assays.
(§2) The human B cell line RPMI1788 (American Type Culture Collection, USA) and the human T cell line Jurkat (European Collection of Cell Cultures, ECACC, England) were maintained in RPMI1640 culture medium (BioWhittaker®, Lonza, Verviers, Belgium) containing 10% foetal calf serum (FCS, HyClone® Thermo Scientific, United Kingdom) and 5 μg/mL gentamicin sulphate (BioWhittaker®, Lonza, Verviers, Belgium) at 37°C and 5% CO2.
(§3) WST-1 assays on RPMI-1788 cells and Jurkat cells were performed as follows: 20 μL of test compound dilution were added to each well containing exponential growing cells and the plates were incubated for 48 h at 37°C, 5% CO2. Untreated cells and positive control (1% triton X-100, for the last 15 min) served as reference for maximum and minimum viability. At the end of incubation 100 μL of supernatant were removed and replaced by 10 μL of WST-1 solution (Cell Proliferation Reagent WST-1, Roche Applied Science).

[9] = WST-1 cytotoxicity assay on Jurkat cells (T-cell line); format: cell-based, human; details: human, Jurkat cells (T-cell line), mean of 4 independent measures, read-out: Cytotoxicity, WST-1 Jurkat IC 50 (µM) Mean
Method: as §1, §2, §3

[10] = molecular target: VEGFR2 (Homo sapiens, UniProt P35968); assay: Kinase activity test (ReactionBiology), % enzyme activity relative to DMSO; format: biochemical; design: purchased ReactionBiology; details: VEGFR2;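 further: VEGFR2 was one member of a ten-kinase screening panel testing marketed FDA-approved drugs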
[11] = NEK2, 1 uM, Average, read-out: % Enzyme Activity (relative to DMSO controls), Average
[12] = NEK2, 1 uM, replicate Data 1, read-out: % Enzyme Activity (relative to DMSO controls), Data 1
[13] = NEK2, 1 uM, replicate Data 2, read-out: % Enzyme Activity (relative to DMSO controls), Data 2
[14] = NEK2, 10 uM, Average, read-out: % Enzyme Activity (relative to DMSO controls), Average
[15] = NEK2, 10 uM, replicate Data 1, read-out: % Enzyme Activity (relative to DMSO controls), Data 1
[16] = NEK2, 10 uM, replicate Data 2, read-out: % Enzyme Activity (relative to DMSO controls), Data 2
[17] = Average, read-out: % Enzyme Activity (relative to DMSO controls), Average
[18] = replicate Data 1, read-out: % Enzyme Activity (relative to DMSO controls), Data 1
[19] = replicate Data 2, read-out: % Enzyme Activity (relative to DMSO controls), Data 2
[20] = read-out: % Enzyme Activity (relative to DMSO controls), Average
[21] = read-out: % Enzyme Activity (relative to DMSO controls), Data 1
[22] = read-out: % Enzyme Activity (relative to DMSO controls), Data 2
[23] = NEK2, compound 1μM, relative to DMSO controls, read-out: % Enzyme activity at 1μM
[24] = NEK2, compound 10μM, relative to DMSO controls, read-out: % Enzyme activity at 10μM

T2 sequence (P53355 whole entry): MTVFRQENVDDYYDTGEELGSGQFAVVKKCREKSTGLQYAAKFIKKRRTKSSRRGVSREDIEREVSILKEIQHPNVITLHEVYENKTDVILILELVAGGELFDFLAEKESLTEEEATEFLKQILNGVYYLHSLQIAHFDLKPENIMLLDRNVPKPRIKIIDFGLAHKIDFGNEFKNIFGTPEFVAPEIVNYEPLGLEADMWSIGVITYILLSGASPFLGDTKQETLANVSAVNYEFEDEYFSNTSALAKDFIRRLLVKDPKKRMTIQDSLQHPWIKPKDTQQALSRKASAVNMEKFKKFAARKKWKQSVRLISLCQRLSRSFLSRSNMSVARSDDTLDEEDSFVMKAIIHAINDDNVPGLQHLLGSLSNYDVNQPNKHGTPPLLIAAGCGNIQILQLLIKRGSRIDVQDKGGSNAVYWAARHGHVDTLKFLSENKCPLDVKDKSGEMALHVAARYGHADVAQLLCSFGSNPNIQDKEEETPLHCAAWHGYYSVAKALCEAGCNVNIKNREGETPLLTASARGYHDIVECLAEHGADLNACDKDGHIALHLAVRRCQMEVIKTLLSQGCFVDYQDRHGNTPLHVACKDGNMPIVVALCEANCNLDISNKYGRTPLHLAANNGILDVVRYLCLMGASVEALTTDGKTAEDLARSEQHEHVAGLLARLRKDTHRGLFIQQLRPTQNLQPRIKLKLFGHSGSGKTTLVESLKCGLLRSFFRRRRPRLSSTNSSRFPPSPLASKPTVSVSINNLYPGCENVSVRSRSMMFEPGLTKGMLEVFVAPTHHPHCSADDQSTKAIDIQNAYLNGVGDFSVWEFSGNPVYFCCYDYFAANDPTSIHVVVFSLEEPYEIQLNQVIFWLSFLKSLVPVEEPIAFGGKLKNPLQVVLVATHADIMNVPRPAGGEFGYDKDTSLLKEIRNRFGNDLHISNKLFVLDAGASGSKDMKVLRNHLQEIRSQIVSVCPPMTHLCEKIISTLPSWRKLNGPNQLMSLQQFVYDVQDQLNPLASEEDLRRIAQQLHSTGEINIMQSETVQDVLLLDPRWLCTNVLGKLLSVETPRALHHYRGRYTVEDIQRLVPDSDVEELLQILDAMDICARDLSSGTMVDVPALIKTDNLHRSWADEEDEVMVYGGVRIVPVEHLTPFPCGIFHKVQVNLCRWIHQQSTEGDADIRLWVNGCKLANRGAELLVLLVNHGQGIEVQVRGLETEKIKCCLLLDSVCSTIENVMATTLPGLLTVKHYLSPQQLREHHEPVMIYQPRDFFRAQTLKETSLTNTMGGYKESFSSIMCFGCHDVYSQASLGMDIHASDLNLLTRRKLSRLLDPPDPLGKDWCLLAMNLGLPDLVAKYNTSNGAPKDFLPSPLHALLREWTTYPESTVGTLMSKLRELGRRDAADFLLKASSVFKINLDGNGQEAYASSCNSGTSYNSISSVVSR
VEGFR2, sequence (P35968 20-1356): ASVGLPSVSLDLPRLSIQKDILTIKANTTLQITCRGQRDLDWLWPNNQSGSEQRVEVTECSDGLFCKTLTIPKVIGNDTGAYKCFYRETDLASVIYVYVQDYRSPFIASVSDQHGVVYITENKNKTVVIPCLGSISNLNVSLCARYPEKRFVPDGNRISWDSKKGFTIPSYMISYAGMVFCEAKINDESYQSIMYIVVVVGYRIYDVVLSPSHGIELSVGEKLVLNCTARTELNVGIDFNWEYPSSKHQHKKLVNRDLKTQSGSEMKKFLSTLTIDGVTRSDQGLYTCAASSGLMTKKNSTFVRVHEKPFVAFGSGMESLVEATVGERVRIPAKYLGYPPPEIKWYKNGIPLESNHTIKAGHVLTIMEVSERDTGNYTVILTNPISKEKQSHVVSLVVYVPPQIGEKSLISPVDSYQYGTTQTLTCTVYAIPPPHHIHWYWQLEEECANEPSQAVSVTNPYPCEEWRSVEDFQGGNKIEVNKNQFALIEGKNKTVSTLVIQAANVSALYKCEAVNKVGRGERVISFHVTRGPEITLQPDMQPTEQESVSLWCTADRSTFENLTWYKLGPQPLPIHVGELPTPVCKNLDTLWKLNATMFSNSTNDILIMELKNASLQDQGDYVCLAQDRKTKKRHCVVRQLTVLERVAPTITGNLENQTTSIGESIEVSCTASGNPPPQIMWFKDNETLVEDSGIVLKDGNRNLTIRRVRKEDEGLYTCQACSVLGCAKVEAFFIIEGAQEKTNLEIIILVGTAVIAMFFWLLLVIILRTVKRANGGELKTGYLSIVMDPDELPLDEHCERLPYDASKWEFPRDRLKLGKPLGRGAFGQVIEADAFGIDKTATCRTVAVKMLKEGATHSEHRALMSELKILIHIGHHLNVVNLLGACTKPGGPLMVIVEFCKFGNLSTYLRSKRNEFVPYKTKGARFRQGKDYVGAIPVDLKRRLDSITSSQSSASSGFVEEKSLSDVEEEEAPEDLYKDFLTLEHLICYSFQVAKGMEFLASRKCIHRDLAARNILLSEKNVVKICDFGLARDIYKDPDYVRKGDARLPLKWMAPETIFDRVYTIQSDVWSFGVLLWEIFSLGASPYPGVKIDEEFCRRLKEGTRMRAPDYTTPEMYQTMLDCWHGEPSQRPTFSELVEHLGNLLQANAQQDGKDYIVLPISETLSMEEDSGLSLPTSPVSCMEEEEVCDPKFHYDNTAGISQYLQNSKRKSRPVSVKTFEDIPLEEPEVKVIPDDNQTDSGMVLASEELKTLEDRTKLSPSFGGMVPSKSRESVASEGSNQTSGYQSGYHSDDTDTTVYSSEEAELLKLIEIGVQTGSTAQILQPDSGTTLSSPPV
T4 sequence (Q9P289 whole entry): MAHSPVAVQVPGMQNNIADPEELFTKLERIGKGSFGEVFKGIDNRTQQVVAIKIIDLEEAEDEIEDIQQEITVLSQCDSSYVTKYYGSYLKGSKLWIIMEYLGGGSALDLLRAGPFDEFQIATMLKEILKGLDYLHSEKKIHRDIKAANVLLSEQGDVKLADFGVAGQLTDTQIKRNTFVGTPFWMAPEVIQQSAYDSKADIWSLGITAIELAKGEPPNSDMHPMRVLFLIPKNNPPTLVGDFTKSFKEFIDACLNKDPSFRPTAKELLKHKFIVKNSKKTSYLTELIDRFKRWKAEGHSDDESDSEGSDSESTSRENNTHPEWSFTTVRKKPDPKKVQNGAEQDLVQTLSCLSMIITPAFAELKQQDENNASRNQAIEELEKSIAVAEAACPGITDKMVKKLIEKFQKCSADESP
T3 sequence (P48730 whole entry): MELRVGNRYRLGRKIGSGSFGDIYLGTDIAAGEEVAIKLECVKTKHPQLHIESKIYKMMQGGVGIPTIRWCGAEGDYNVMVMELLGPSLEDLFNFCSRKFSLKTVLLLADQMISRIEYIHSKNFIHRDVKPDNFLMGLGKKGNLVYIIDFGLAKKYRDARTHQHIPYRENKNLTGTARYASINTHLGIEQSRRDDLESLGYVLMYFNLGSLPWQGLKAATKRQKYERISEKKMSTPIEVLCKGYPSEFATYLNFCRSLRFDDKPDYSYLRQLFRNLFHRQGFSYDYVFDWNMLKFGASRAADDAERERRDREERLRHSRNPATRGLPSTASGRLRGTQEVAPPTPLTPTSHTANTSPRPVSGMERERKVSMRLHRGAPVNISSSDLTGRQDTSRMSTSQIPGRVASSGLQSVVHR
T5 sequence (P36507 whole entry): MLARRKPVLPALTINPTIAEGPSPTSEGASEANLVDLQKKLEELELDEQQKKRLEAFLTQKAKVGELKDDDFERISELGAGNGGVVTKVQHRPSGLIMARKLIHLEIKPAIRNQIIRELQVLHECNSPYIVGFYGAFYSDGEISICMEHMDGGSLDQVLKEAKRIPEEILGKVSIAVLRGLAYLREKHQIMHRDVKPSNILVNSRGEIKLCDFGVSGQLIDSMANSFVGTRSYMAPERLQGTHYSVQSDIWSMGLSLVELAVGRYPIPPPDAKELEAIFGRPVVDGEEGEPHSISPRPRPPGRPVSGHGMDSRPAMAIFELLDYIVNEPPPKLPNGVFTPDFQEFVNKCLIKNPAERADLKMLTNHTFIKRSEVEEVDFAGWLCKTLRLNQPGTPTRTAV

Row | Compound | remaining activity at 1 µM [1, 11] | remaining activity at 1 µM [1, 12] | remaining activity at 1 µM [1, 13] | remaining activity at 10 µM [1, 14] | remaining activity at 10 µM [1, 15] | remaining activity at 10 µM [1, 16] | remaining activity at 1 µM [3, 17] | remaining activity at 1 µM [3, 18] | remaining activity at 1 µM [3, 19] | remaining activity at 10 µM [3, 17] | remaining activity at 10 µM [3, 18] | remaining activity at 10 µM [3, 19] | IC50 [6] | IC50 [7] | IC50 at 48 h [8] | IC50 at 48 h [9] | remaining activity at 1 µM [1, 23] | remaining activity at 10 µM [1, 24] | also measured
1 | Cc1nc(Nc2ncc(C(=O)Nc3c(C)cccc3Cl)s2)cc(N2CCN(CCO)CC2)n1 [Dasatinib, reference compound] | 81.6% | 81.9% | 81.2% | 19% | 20% | 18% | 98.7% | 95.4% | 102% | 92.7% | 93.2% | 92.2% | 0.046 µM | 0.0032 µM | 0.0324 µM | 7.3 µM | – | – | remaining activity at 1 µM [2, 17]: 92%; remaining activity at 1 µM [2, 18]: 91.8%; remaining activity at 1 µM [2, 19]: 92.1%; remaining activity at 10 µM [2, 17]: 51.4%; remaining activity at 10 µM [2, 18]: 49.9%; remaining activity at 10 µM [2, 19]: 52.8%; remaining activity at 1 µM [4, 17]: 40.2%; remaining activity at 1 µM [4, 18]: 46.5%; remaining activity at 1 µM [4, 19]: 33.9%; remaining activity at 10 µM [4, 17]: 12%; remaining activity at 10 µM [4, 18]: 9.39%; remaining activity at 10 µM [4, 19]: 14.6%; remaining activity at 1 µM [5, 17]: 45.1%; remaining activity at 1 µM [5, 18]: 44.8%; remaining activity at 1 µM [5, 19]: 45.5%; remaining activity at 10 µM [5, 17]: 7.91%; remaining activity at 10 µM [5, 18]: 8.25%; remaining activity at 10 µM [5, 19]: 7.56%
2 | Oc1c(Cl)cc(Cl)c(Cl)c1Cc1c(O)c(Cl)cc(Cl)c1Cl [Hexachlorophene, reference compound] | – | – | – | – | – | – | – | – | – | – | – | – | 5.34 µM | 1.42 µM | 4.2 µM | 5.88 µM | – | – | remaining activity at 1 µM [1, 20]: 84.9%; remaining activity at 10 µM [1, 20]: 0.02%; remaining activity at 1 µM [1, 21]: 85.4%; remaining activity at 10 µM [1, 21]: -0.21%; remaining activity at 1 µM [1, 22]: 84.5%; remaining activity at 10 µM [1, 22]: 0.25%; remaining activity at 1 µM ([1]; read-out: % Enzyme activity at 1μM): 84.9%; remaining activity at 10 µM ([1]; read-out: % Enzyme activity at 10μM): 0.02%
3 | Nc1ccc2cc3ccc(N)cc3nc2c1 [Proflavine, reference compound] | 104% | 104% | 104% | 51.6% | 49% | 54.1% | – | – | – | – | – | – | 0.59 µM | 4.39 µM | 3.01 µM | 5 µM | 104% | 51.6% | Selectivity Index (SI) MLR/B-cell ([7]; ratio of IC50 values): 7.5
4 | N[C@@H](Cc1cc(I)c(Oc2cc(I)c(O)c(I)c2)c(I)c1)C(=O)O [Thyroxine, reference compound] | 90.2% | 91.2% | 89.1% | 48.1% | 47.1% | 49.1% | 106% | 106% | 106% | 97.2% | 99.7% | 94.7% | 34.1 µM | > 50 µM | > 50 µM | > 50 µM | 90.2% | 48.1% | remaining activity at 1 µM [10, 17]: 104%; remaining activity at 1 µM [10, 18]: 106%; remaining activity at 1 µM [10, 19]: 103%; remaining activity at 10 µM [10, 17]: 86.6%; remaining activity at 10 µM [10, 18]: 89.7%; remaining activity at 10 µM [10, 19]: 83.5%
